From article PMC11052077, “Discovery of Dolutegravir Derivative against Liver Cancer via Inducing Autophagy and DNA Damage” (Molecules, 2024)

Assays:
in vitro = assay type: cell-based, human; conditions: human
Procedure: This study aimed to assess the anti-proliferative activity of dolutegravir-1,2,3-triazole derivatives on hepatocellular carcinoma cell lines, Huh7 and hepG2. A comprehensive CCK8 assay was employed to evaluate the impact of these compounds on cell viability, with cells treated at a concentration of 20 μM for 48 h. HRM cells, a normal cell line, were included as a control for comparative analysis. […]
(§1) CCK8 assay was used to measure cell viability. Cells with a density of 1 × 10^4 cells/well were seeded on 96-well plates. After adhesion, cells were treated with different diluted compounds or vehicle control DMSO and continued to be cultured for 48 h or 72 h, respectively. Then, CCK8 reagent was added for one hour incubation at 37 °C with 5% CO2. Absorbance was measured using a Microplate spectrophotometer (Thermo, Waltham, MA, USA) at 450 nm. The ratio of cell viability of control was taken as 100%. […] Then, IC50 of compounds were investigated using the prism statistical software 7.0.

[1] = dose 27 times greater than the clinical dose, preclinical study; cited from earlier work
hepG2 cells = experiment: CCK8 cell viability assay, hepG2; assay type: cell-based, human; conditions: Homo sapiens
Procedure: (§2) This study aimed to assess the anti-proliferative activity of dolutegravir-1,2,3-triazole derivatives on hepatocellular carcinoma cell lines, Huh7 and hepG2. A comprehensive CCK8 assay was employed to evaluate the impact of these compounds on cell viability, with cells treated at a concentration of 20 μM for 48 h. HRM cells, a normal cell line, were included as a control for comparative analysis.
(§3) Human hepatocellular carcinoma cell lines Huh7 and hepG2 were obtained from ATCC (Manassas, VA, USA). Cells were cultured in DMEM or RPMI 1640 medium containing 10% FBS and 1% penicillin/streptomycin at 37 °C with a 5% CO2-humidified atmosphere.
as §1

Huh7 cells = experiment: CCK8 cell viability assay, Huh7; assay type: cell-based, human; conditions: Homo sapiens, Huh-7, 48 h
Procedure: as §2, §3, §1

**Q.** For `C[C@@H]1CCO[C@H]2Cn3cc(C(=O)NCc4ccc(F)cc4F)c(=O)c(O)c3C(=O)N12` [DTG, Dolutegravir], which viability at 48 h, 20 µM (in vitro) is on record?
**A.** The viability at 48 h, 20 µM was 99.6%.

**Q.** And the “fertility and teratogenic toxicity” value [1]?
**A.** Its value is “no obvious fertility toxicity or teratogenic toxicity”.

**Q.** What about the IC50 (hepG2 cells; HepG2, 48 h, hepG2, CCK8, read-out: half maximal inhibitory concentration (IC50), hepG2) of the same compound?
**A.** Its IC50 is over 50 µM.

**Q.** What about the viability at 20 µM (hepG2 cells; 20 μM, 48 h, hepG2, CCK8, control taken as 100%) of the same compound?
**A.** The viability at 20 µM was 82.6%.

**Q.** And the viability at 20 µM (Huh7 cells; 20 μM, Huh7, CCK8, control taken as 100%)?
**A.** The viability at 20 µM was 96.9%.

**Q.** And the IC50 (Huh7 cells; Huh7, CCK8, read-out: half maximal inhibitory concentration (IC50), Huh7)?
**A.** Its IC50 is over 50 µM.
